Measured values from US8138194B2, “Fused bicyclic pyrimidine compounds as aurora kinase inhibitors” (National Health Research Institutes, priority 2008, dated 2012).
pIC50: −log10 of the molar value. Several values for one entry are separate records, joined by “and”; a condition that tells them apart may be missing. Equal values may be shown once.

Legend:
[1] = target: T1, GST-tAurora A (123-401aa) fusion protein (Homo sapiens, UniProt O14965); assay: Aurora Kinase A luminescent kinase assay; format: biochemical; conditions: IC50 (concentration of a test compound at which activity of 50% of Aurora A is inhibited)
T1 construct: GST-tAurora A (123-401aa) fusion protein; made in house; host or cells: Sf9 insect cells (baculovirus, pBacPAK8)
T1 sequence (O14965 123-401): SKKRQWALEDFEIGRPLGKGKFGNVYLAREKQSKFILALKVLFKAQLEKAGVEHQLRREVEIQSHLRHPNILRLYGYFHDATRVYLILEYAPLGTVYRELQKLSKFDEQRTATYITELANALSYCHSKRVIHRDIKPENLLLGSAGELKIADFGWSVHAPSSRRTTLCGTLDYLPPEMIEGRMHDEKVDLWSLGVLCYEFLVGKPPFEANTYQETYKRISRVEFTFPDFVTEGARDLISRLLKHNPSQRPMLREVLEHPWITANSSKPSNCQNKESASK

[2] = system: HCT-116 cells; assay: HCT-116 cell viability MTS assay; format: cell-based; conditions: Homo sapiens, read-out: IC50 (concentration of a test compound which causes 50% of the cell death); HCT-116, 96-h incubation, MTS
Experimental: HCT-116 cell viability was examined by the MTS assay (Promega, Madison, Wis., USA). 2000 HCT-116 cells in 100 μL McCoy's 5a medium were seeded in each well of a 96-well plate. After 96-h incubation with a test compound, the cells were incubated with 20 μL of a MTS/PMS mixture (MTS/PMS ratio: 20: 1) for 2 h at 37° C. in a humidified incubator with 5% CO2 to allow viable cells to convert the tetrazolium salt (MTS) into formazan. The amount/concentration of formazan, which indicates the number of live cells, was determined by measuring the absorbance at 490 nm using a PerkinElmer Victor2 plate reader (PerkinElmer, Shelton, Cont., USA).

[3] = target: T2, PLK4 (Homo sapiens, UniProt O00444); assay: Inhibition of other protein kinases: PLK4; format: biochemical
T2 sequence (O00444 1-970): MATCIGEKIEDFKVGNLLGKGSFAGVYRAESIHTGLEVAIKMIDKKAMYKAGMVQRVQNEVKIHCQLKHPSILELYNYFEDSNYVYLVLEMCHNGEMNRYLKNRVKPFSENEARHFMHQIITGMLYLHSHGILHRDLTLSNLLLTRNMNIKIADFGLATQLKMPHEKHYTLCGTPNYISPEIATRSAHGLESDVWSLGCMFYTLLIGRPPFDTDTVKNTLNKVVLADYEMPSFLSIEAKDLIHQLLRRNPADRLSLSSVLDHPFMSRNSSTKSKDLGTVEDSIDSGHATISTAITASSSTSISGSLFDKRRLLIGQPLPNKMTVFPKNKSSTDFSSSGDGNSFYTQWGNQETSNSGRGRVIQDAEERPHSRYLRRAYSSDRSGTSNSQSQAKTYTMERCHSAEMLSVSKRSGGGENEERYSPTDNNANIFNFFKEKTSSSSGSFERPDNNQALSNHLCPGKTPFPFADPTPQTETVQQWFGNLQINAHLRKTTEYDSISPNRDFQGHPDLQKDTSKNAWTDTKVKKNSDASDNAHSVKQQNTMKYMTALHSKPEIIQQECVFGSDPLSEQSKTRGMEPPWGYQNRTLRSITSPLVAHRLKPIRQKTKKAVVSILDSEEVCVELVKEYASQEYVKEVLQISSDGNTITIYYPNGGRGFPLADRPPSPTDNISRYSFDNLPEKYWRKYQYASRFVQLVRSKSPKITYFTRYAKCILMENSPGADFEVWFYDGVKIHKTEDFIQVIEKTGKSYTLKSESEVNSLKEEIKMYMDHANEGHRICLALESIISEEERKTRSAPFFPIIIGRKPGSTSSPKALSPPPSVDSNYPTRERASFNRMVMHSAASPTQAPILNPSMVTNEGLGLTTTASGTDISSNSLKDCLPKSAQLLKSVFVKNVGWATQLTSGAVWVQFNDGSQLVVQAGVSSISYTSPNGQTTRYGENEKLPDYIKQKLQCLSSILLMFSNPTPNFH

[4] = target: PDGFRB (Homo sapiens, UniProt P09619); assay: Inhibition of other protein kinases: PDGFRB; format: biochemical
[5] = target: T3, FLT3 (Homo sapiens, UniProt P36888); assay: Inhibition of other protein kinases: FLT3; format: biochemical
T3 sequence (P36888 27-993): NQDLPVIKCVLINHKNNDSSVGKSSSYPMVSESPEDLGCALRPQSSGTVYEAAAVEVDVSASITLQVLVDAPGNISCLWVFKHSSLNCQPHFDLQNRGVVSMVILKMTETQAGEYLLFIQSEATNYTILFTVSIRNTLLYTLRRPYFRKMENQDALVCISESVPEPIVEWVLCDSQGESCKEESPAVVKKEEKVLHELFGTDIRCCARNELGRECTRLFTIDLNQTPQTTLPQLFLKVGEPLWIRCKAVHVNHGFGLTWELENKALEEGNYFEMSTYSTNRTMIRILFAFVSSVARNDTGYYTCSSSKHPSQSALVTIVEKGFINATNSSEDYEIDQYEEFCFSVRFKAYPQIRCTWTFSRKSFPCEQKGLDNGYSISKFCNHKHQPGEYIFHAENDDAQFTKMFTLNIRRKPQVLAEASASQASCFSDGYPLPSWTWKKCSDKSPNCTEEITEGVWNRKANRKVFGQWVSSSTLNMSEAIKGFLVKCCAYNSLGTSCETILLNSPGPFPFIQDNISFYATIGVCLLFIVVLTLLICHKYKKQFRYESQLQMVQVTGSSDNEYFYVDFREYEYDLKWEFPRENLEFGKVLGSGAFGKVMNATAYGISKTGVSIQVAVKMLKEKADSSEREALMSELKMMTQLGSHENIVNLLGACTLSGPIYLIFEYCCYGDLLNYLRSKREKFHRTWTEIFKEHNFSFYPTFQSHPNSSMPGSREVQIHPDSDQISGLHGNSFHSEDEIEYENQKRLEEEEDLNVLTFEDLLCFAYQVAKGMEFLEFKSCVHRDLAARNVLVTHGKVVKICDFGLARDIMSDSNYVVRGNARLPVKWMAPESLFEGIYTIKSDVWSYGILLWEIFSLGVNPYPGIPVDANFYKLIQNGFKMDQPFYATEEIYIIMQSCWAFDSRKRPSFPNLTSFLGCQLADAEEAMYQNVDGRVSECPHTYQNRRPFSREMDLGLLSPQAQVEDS

PDGFRB, sequence (P09619 33-1106, species assumed): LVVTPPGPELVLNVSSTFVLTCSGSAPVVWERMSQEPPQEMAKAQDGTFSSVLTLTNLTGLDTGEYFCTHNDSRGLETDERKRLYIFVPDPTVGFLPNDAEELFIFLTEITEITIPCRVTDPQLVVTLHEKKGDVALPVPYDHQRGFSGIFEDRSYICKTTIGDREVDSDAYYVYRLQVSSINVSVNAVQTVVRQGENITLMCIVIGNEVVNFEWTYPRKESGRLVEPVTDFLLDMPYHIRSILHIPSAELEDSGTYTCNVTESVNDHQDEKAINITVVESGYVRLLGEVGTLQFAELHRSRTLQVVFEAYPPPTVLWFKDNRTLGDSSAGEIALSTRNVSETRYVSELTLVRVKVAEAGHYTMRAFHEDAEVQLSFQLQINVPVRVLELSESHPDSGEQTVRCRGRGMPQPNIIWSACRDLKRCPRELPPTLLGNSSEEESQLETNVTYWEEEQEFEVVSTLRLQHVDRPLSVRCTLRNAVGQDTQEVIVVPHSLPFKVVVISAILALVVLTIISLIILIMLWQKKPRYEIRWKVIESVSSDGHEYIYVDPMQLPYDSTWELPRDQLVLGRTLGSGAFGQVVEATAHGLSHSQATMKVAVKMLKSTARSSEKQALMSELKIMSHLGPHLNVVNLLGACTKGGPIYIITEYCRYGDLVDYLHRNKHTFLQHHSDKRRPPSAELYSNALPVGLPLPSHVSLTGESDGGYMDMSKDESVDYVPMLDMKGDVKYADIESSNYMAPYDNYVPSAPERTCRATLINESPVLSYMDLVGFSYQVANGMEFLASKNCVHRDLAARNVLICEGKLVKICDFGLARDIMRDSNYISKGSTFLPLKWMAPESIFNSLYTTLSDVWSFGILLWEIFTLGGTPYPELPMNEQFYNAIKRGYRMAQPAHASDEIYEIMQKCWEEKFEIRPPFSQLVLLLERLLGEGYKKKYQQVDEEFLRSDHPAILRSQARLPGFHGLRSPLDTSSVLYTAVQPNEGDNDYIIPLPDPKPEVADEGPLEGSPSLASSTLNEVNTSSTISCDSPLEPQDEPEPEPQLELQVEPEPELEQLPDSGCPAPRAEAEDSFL

O=C(Nc1ccccc1)Nc1ccc(CCNc2ncnc3oc(-c4ccccc4)c(Cl)c23)cc1 [Compound 82] was tested, and the pIC50 [1] was 6.40 to 7.35 and > 6.00, the pIC50 [2] was 6.05 to 7.00 and the “inhibits the activity of PLK4” value [3] was “inhibits”. The “inhibits the activity of PDGFRB” value [4] was “inhibits” and the “inhibits the activity of FLT3” value [5] was “inhibits”.
